In ChEMBL document CHEMBL1201862, “PubChem BioAssay data set” (2004):
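Interpolation was linear, between the two tested concentrations surrounding the appropriate level; five concentrations were tested over 48 hours in 96-well plates. GI50 is the concentration that inhibits growth by half.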 Calls of active or inactive are those of the source. Cut-off read from the data, not from the text of the source: active = GI50 up to about 1.1 µM and inactive = higher.

How the values were obtained:
Assay in all cases: inhibition of tumour cell growth, NCI panel, 48 h
NCI-H23 = system: NCI-H23
U-251 = system: U-251
CAKI-1 = system: CAKI-1
HT-29 = system: HT-29
HOP-62 = system: HOP-62
UACC-62 = system: UACC-62
IGROV-1 = system: IGROV-1
OVCAR-4 = system: OVCAR-4
SF-268 = system: SF-268
SK-MEL-5 = system: SK-MEL-5
HOP-92 = system: HOP-92
OVCAR-3 = system: OVCAR-3
786-0 = system: 786-0
OVCAR-8 = system: OVCAR-8
SK-MEL-28 = system: SK-MEL-28
CCRF-CEM = system: CCRF-CEM
UACC-257 = system: UACC-257
SF-295 = system: SF-295

| Structure (SMILES) | GI50 (NCI-H23) | GI50 (U-251) | GI50 (CAKI-1) | GI50 (HT-29) | GI50 (HOP-62) | GI50 (UACC-62) | GI50 (IGROV-1) | GI50 (OVCAR-4) | GI50 (SF-268) | GI50 (SK-MEL-5) | GI50 (HOP-92) | GI50 (OVCAR-3) | GI50 (786-0) | GI50 (OVCAR-8) | GI50 (SK-MEL-28) | GI50 (CCRF-CEM) | GI50 (UACC-257) | GI50 (SF-295) |
| --- | --- | --- | --- | --- | --- | --- | --- | --- | --- | --- | --- | --- | --- | --- | --- | --- | --- | --- |
| CC(C)=Cc1cc(C(=O)NCCNC(=O)c2cc(C=C(C)C)nc(NC#N)n2)nc(NC#N)n1 | > 100 µM (inactive) | > 100 µM (inactive) | > 100 µM (inactive) | > 100 µM (inactive) | > 100 µM (inactive) | > 100 µM (inactive) | > 100 µM (inactive) | > 100 µM (inactive) | > 100 µM (inactive) | > 100 µM (inactive) | > 100 µM (inactive) | > 100 µM (inactive) | > 100 µM (inactive) | > 100 µM (inactive) | > 100 µM (inactive) | > 100 µM (inactive) | > 100 µM (inactive) | > 100 µM (inactive) |
| CC(=O)C1=CSC2[C@H](NC(=O)Cc3ccccc3)C(=O)N2C1C(=O)OC(c1ccccc1)c1ccccc1 (stereo partly specified) | 51.6 µM (inactive) |  | 59 µM (inactive) | > 100 µM (inactive) | 58.6 µM (inactive) | 30.1 µM (inactive) | > 100 µM (inactive) | > 100 µM (inactive) | 47.6 µM (inactive) | 65.6 µM (inactive) | 46.5 µM (inactive) | > 100 µM (inactive) | 60.5 µM (inactive) | > 100 µM (inactive) | > 100 µM (inactive) | 23.1 µM (inactive) | > 100 µM (inactive) | 40.7 µM (inactive) |
| CCOC(=O)C(/C(=N/NC(=O)OC)C(=O)Nc1ccc(C(C)=O)cc1)c1cnc2ccccc2n1 (stereo unspecified) | > 100 µM (inactive) | > 100 µM (inactive) | > 100 µM (inactive) | > 100 µM (inactive) | > 100 µM (inactive) | > 100 µM (inactive) | > 100 µM (inactive) | > 100 µM (inactive) | > 100 µM (inactive) | > 100 µM (inactive) | > 100 µM (inactive) | > 100 µM (inactive) | > 100 µM (inactive) | > 100 µM (inactive) | > 100 µM (inactive) | > 100 µM (inactive) | > 100 µM (inactive) | > 100 µM (inactive) |
| C=CCCc1cc(OC)ccc1CN(C)C(C)(C)CO | > 100 µM (inactive) | > 100 µM (inactive) | > 100 µM (inactive) | > 100 µM (inactive) | > 100 µM (inactive) | > 100 µM (inactive) | > 100 µM (inactive) | > 100 µM (inactive) | > 100 µM (inactive) | > 100 µM (inactive) | > 100 µM (inactive) | > 100 µM (inactive) | > 100 µM (inactive) | > 100 µM (inactive) | > 100 µM (inactive) | > 100 µM (inactive) | > 100 µM (inactive) | > 100 µM (inactive) |
| O=C(CCc1n[nH]c(=S)o1)Nc1ccccc1C(F)(F)F | > 100 µM (inactive) | > 100 µM (inactive) | > 100 µM (inactive) | > 100 µM (inactive) | > 100 µM (inactive) | > 100 µM (inactive) | > 100 µM (inactive) | > 100 µM (inactive) | > 100 µM (inactive) | > 100 µM (inactive) | > 100 µM (inactive) | > 100 µM (inactive) | > 100 µM (inactive) | > 100 µM (inactive) | > 100 µM (inactive) | > 100 µM (inactive) | > 100 µM (inactive) | > 100 µM (inactive) |
| COc1cc(C(=O)Nc2cccc3ccccc23)c(Br)c(OC)c1OC | 82 µM (inactive) | > 100 µM (inactive) | > 100 µM (inactive) | > 100 µM (inactive) | > 100 µM (inactive) | 45.2 µM (inactive) | 81.8 µM (inactive) | 16.5 µM (inactive) | 97.1 µM (inactive) | 41.1 µM (inactive) | 42.2 µM (inactive) | > 100 µM (inactive) | 1.38 µM (inactive) | 0.0416 µM (active) | 89.9 µM (inactive) | 33.9 µM (inactive) | > 100 µM (inactive) | > 100 µM (inactive) |
| Sc1nnc(COc2ccc(Cl)cc2)[nH]1 | > 100 µM (inactive) | > 100 µM (inactive) | > 100 µM (inactive) | > 100 µM (inactive) | > 100 µM (inactive) | > 100 µM (inactive) | > 100 µM (inactive) | > 100 µM (inactive) | > 100 µM (inactive) | > 100 µM (inactive) | > 100 µM (inactive) | > 100 µM (inactive) | > 100 µM (inactive) | > 100 µM (inactive) | > 100 µM (inactive) | > 100 µM (inactive) | > 100 µM (inactive) | > 100 µM (inactive) |
| O=c1c2cccc3cccc(c4n1CCCN=4)c32 | > 100 µM (inactive) | > 100 µM (inactive) | > 100 µM (inactive) | > 100 µM (inactive) | > 100 µM (inactive) | > 100 µM (inactive) | > 100 µM (inactive) | > 100 µM (inactive) | > 100 µM (inactive) | > 100 µM (inactive) | > 100 µM (inactive) | > 100 µM (inactive) | > 100 µM (inactive) | > 100 µM (inactive) | > 100 µM (inactive) | 41.6 µM (inactive) | > 100 µM (inactive) | > 100 µM (inactive) |
| CC1=NN(C(=O)c2ccc(Cl)cc2)C(=O)/C1=C/c1ccc(Cl)cc1 | > 100 µM (inactive) | > 100 µM (inactive) | > 100 µM (inactive) | > 100 µM (inactive) | > 100 µM (inactive) | > 100 µM (inactive) | > 100 µM (inactive) | > 100 µM (inactive) | > 100 µM (inactive) | > 100 µM (inactive) | > 100 µM (inactive) | > 100 µM (inactive) | > 100 µM (inactive) | > 100 µM (inactive) | > 100 µM (inactive) | > 100 µM (inactive) | > 100 µM (inactive) | > 100 µM (inactive) |
| CN(C)/N=N/c1ccc(C(N)=O)cc1 | > 100 µM (inactive) | > 100 µM (inactive) | > 100 µM (inactive) | > 100 µM (inactive) | > 100 µM (inactive) | > 100 µM (inactive) | > 100 µM (inactive) | > 100 µM (inactive) | > 100 µM (inactive) | > 100 µM (inactive) | > 100 µM (inactive) | > 100 µM (inactive) | > 100 µM (inactive) | > 100 µM (inactive) | > 100 µM (inactive) | > 100 µM (inactive) | > 100 µM (inactive) | > 100 µM (inactive) |
| OCCCCn1cnc2c(O)ncnc21 | > 100 µM (inactive) |  | > 100 µM (inactive) | > 100 µM (inactive) | > 100 µM (inactive) | > 100 µM (inactive) | > 100 µM (inactive) | > 100 µM (inactive) | > 100 µM (inactive) | > 100 µM (inactive) | > 100 µM (inactive) | > 100 µM (inactive) | > 100 µM (inactive) | > 100 µM (inactive) | > 100 µM (inactive) | > 100 µM (inactive) | > 100 µM (inactive) | > 100 µM (inactive) |
